Laboratory results: patent US6852531B2, “Compositions and methods for reproducing and modulating mammalian messenger RNA decapping” (University of Medicine & Dentistry of NJ, priority 2000, dated 2005)
One block for each compound: values may come before it.

Tests used:
[1] = system: decapping activity in HeLa S100 cytoplasmic extract; test: In vitro decapping assay (release of 7meGDP from cap-labeled RNA, TLC); assay type: biochemical, human; conditions: for effect of competitor RNA on decapping of AU-rich element-containing RNA substrate: FIG. 6; for activation of decapping in human cytoplasmic extract: cold cap analog added to standard S100 extract
Method: In one embodiment of a manual procedure, the components are as follows (referred to herein as “standard reaction conditions”): • 1 microliter ^7meGpppG or ^7meGTP competitor (50-500 ng/microliter); • 1 microliter RNA (˜5-200 fmol; labeled at the alpha phosphate of the cap); • 4 microliters S100 extract; and • 4 microliters water.
The mixture is incubated at 30° C. for 30 min; aliquots are then taken at designated time points to follow the kinetics of decapping by visualization of the product of decapping, ^7meGDP, by, for example, thin layer chromatography on a cellulose PEI sheet using a mobile phase of 0.45 M ammonium sulfate. Other means for identifying the decapping product are fully embraced herein.
Decapping assays were performed using conditions adapted from Zhang et al (1999b). 10-50 fmoles of cap-labeled RNAs were incubated with 4 microliters HeLa S100 cytoplasmic extract in a 10 microliter reaction in the presence of CE buffer (50 mM Tris pH 7.9, 30 mM (NH4)2SO4, 1 mM MgCl2) and 20 micromolar cap analog (where indicated). Reaction mixtures were incubated at 30° C. for the times indicated and stopped by the addition of 1 microliter of 0.25 M EDTA. Reaction products were separated and identified by thin layer chromatography on PEI cellulose sheets developed in 450 mM (NH4)2SO4. Quantitation was performed using a Molecular Dynamics Phosphorimager. Twenty micrograms of ^7meGMP and ^7meGDP were routinely spotted on TLC plates along with reaction samples to serve as markers that could be visualized by UV shadowing.

HuR = molecular target: T1, HuR (Homo sapiens, UniProt Q15717); test: UV cross-linking of ARE-binding proteins with ARE competitor RNA; conditions: S100 extract
T1 construct: endogenous in cells; host or cells: HeLa spinner cells, S100 cytoplasmic extract
T1 sequence (Q15717 whole entry): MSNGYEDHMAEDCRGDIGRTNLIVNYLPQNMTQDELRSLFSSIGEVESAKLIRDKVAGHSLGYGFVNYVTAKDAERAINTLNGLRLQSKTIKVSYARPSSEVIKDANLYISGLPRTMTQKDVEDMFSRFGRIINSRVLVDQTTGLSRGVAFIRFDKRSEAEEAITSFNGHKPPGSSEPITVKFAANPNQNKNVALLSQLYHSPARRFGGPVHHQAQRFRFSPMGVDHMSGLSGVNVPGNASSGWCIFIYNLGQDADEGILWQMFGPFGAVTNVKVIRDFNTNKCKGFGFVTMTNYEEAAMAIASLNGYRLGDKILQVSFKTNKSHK
Method: (§1) UV cross-linking analysis was performed as described (Wilusz and Shenk, 1988). Briefly, 20-50 fmoles of cap-radiolabeled RNA was incubated in the in vitro decapping assay for 5 min. and then reaction mixtures were irradiated on ice for 10 min. using a 15W germicidal light. RNases A and T1 were added and proteins covalently attached to short radioactive RNA oligomers were analyzed on a 10% acrylamide gel containing SDS. For analysis of UV cross-linked DAN/PARN protein by immunoprecipitation using a polyclonal antibody obtained from M. Wormington (Korner et al., 1998), 400 ul of NET2 buffer (50 mM Tris pH 7.6, 150 mM NaCl, 0.01% NP40) was added to reaction mixtures following RNase treatment and reaction mixtures were centrifuged for 4 min. Pre-cleared samples were incubated on ice with 2-5 microliters of specified rabbit polyclonal antisera for 1 hr. Antigen antibody complexes were collected on protein A-positive Staphylococcus aureus cells, washed five times in RIPA buffer (50 mM Tris, pH 7.6, 150 mM NaCl, 0.1% SDS, 1% NP40, 0.5% deoxycholate), and immunoprecipitated cross-linked proteins were analyzed on a 10 or 15% acrylamide gel containing SDS.

[2] = system: unidentified 40 kDa species (ARE-specific RNA binding protein); test: as above; set-up: species or system human; conditions: S100 extract
Method: as §1

[3] = molecular target: T2, 24 kDa cap binding protein (eIF4E) (Homo sapiens, UniProt P06730); test: UV cross-linking of cap-labeled RNA to cap-binding proteins
T2 construct: endogenous in cells; host or cells: HeLa spinner cells, S100 cytoplasmic extract
T2 sequence (P06730 whole entry): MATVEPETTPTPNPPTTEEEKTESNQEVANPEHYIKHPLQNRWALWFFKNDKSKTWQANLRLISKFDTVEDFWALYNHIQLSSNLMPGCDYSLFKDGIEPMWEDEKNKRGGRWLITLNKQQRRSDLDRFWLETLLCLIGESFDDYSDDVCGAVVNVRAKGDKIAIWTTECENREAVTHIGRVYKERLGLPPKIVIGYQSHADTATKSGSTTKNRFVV
Method: as §1

deadenylase DAN/PARN = molecular target: T3, deadenylase DAN/PARN (Homo sapiens, UniProt O95453); test: UV cross-linking / immunoprecipitation of DAN/PARN; assay type: binding
T3 construct: incubated HeLa S100 extracts using cap-labeled GemARE-A60 RNA under decapping conditions; endogenous in cells; host or cells: HeLa spinner cells, S100 cytoplasmic extract
T3 sequence (O95453 1-639): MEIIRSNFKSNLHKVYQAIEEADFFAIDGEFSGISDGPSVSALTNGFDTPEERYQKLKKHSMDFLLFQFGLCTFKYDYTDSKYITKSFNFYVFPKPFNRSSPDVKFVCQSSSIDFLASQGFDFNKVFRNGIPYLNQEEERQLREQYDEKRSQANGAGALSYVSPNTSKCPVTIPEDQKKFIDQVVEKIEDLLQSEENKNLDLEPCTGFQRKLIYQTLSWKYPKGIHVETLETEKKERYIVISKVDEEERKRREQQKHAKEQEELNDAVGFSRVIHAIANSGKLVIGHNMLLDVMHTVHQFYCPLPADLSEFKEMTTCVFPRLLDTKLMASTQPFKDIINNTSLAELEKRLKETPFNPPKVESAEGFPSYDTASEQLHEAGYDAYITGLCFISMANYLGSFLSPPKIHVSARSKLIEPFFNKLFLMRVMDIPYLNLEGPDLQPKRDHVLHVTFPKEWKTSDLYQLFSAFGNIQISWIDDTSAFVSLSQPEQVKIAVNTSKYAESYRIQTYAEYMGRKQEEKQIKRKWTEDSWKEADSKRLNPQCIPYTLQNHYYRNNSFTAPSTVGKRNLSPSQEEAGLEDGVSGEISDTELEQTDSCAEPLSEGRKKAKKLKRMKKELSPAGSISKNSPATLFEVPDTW
Method: as §1

[4] = titration, GemARE-A0 RNA, FIG. 2D
[5] = 5 micromolar cap analog, FIG. 2D

Compound: 5′-GGAUUAACUAAUUGAUACCGCGUAUACACGCGG (RNA, backbone not given here) [control competitor RNA]
effect of competitor RNA on decapping of AU-rich element-containing RNA substrate ([1]; with cap analog): no effect on decapping efficiency

Compound: 5′AUUAUUUAUUAUUUAUUUAUUAUUUAUUUAUUUA (RNA, backbone not given here) [ARE competitor RNA]
substrate dependence of the reduction in decapping efficiency ([1]; Gem-A0 versus GemARE-A0, FIG. 6B): only observed with RNA substrates that contained an AU-rich element
effect of competitor RNA on decapping of AU-rich element-containing RNA substrate ([1]; with cap analog): significantly reduced decapping
competition of HuR cross-linking (HuR): competed
competition of 40 kDa species cross-linking [2]: competed

Compound: Nc1nc2c(ncn2[C@@H]2O[C@H](COP(=O)(O)OP(=O)(O)OP(=O)(O)OC[C@H]3O[C@@H](n4cnc5c(=O)[nH]c(N)nc54)[C@H](O)[C@@H]3O)[C@@H](O)[C@H]2O)c(=O)[nH]1 [GpppG]
ability of methylated versus non-methylated cap analogs to activate decapping ([1]; HeLa S100, cap-labeled GemARE-A60 RNA, FIG. 2A): the presence of the methyl group on the cap analog was absolutely required to activate decapping

Compound: Cn1c[n+]([C@@H]2O[C@H](COP(=O)([O-])OP(=O)(O)OP(=O)(O)O)[C@@H](O)[C@H]2O)c2nc(N)[nH]c(=O)c21 [^7meGTP]
activation of decapping in human cytoplasmic extract [1]: activates the human cytoplasmic extract

sequestration of 24 kDa cap binding protein [3, 5]: fully sequestered
competition for cross-linking of 24 kDa protein to cap ([3]; increasing amounts, HeLa S100, FIG. 2B): specifically competed
full sequestration of DAN/PARN (deadenylase DAN/PARN; [5]): not
competition for cap binding by DAN/PARN (deadenylase DAN/PARN; FIG. 2C): specifically competed
amount required to fully sequester DAN/PARN (deadenylase DAN/PARN; FIG. 2D): 10 µM
Compound: Cn1c[n+]([C@@H]2O[C@H](COP(=O)(O)OP(=O)(O)OP(=O)(O)OC[C@H]3O[C@@H](n4cnc5c(=O)[nH]c(N)nc54)[C@H](O)[C@@H]3O)[C@@H](O)[C@H]2O)c2nc(N)[nH]c(=O)c21 [^7meGpppG]
activation of decapping of RNA substrates (accumulation of 7meGDP) ([1]; 20 micromolar, 3 independently prepared HeLa cytoplasmic extracts, FIG. 1B): activated decapping
activation of decapping in human cytoplasmic extract [1]: activates the human cytoplasmic extract
amount of cap analog giving only partial activation of decapping [1, 4]: 5 micromolar
amount of cap analog required for full activation of decapping [1, 4]: 10 micromolar

Compound: poly(C)
effect of other homopolymer on decapping ([1]; all RNA substrates tested, with cap analog, FIG. 4B): did not appreciably affect decapping
